The source of these data is ChEMBL document CHEMBL3822368, “Further optimization of the M1 PAM VU0453595: Discovery of novel heterobicyclic core motifs with improved CNS penetration” (Bioorg Med Chem Lett, 2016).

The nature of data set [1]: Brain to plasma partition coefficient in Sprague-Dawley rat at 0.20 to 0.25 mg/kg, iv administered through cassette dosing after 0.25 hrs. The class given is ADME, organism-based. Conditions: for Kp at 0.25 h: Sprague-Dawley, brain and plasma.
Data set [2] in a line: Unbound brain to plasma partition coefficient in Sprague-Dawley rat at 0.20 to 0.25 mg/kg, iv administered through cassette dosing after 0.25 hrs. Conditions: brain and plasma; for Kp uu at 0.25 h: read-out: K(p,uu,brain). It counts as ADME, organism-based.
A further data set relates to CHO. Put plainly: Selectivity ratio of EC50 for human muscarinic acetylcholine receptor M1 to EC50 for rat muscarinic acetylcholine receptor M1 expressed in CHO cells. The class given is cell-based.
Data set [3] deals with T1, Muscarinic acetylcholine receptor M1 (Rattus norvegicus, UniProt P08482).
T1 sequence (P08482 whole entry): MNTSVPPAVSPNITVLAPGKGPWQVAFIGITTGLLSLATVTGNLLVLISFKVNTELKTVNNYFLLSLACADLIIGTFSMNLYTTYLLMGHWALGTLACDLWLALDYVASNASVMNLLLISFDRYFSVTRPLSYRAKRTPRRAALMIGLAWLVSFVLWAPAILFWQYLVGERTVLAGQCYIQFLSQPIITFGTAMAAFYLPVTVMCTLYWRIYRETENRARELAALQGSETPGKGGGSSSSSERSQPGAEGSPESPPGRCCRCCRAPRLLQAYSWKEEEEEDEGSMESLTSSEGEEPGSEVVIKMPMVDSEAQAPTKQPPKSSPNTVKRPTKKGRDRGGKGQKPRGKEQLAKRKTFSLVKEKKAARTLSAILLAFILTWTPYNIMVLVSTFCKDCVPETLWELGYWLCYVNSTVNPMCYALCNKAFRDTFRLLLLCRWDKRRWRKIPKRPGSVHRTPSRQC
Briefly: Positive allosteric modulation at rat muscarinic acetylcholine receptor M1 expressed in CHO cells assessed as potentiation of acetylcholine-induced calcium mobilization. The class given is functional, cell-based. On the technique in general: Calcium assays in cells follow changes in intracellular calcium, usually with a dye or a luminescent sensor.

Data set [4] can be described thus: Fraction unbound in human plasma. It counts as ADME, cell-free.
Data set [5] concerns the target T2, Muscarinic acetylcholine receptor M1 (Rattus norvegicus) (UniProt P08482).
T2 sequence (whole entry): T1 sequence (P08482 whole entry)
Put plainly: Positive allosteric modulation at rat muscarinic acetylcholine receptor M1 expressed in CHO cells assessed as potentiation of acetylcholine-induced calcium mobilization in relative to acetylcholine. It counts as functional, cell-based.

Data set [6] deals with T3, Muscarinic acetylcholine receptor M1 (Homo sapiens, UniProt P11229).
T3 sequence (P11229 whole entry): T1 sequence (P08482 whole entry) with V5A, S254T, S309P, K320R, G337A, V413I
Briefly: Positive allosteric modulation at human muscarinic acetylcholine receptor M1 expressed in CHO cells assessed as potentiation of acetylcholine-induced calcium mobilization. It counts as functional, cell-based.

Data set [7] is described as follows: Fraction unbound in rat plasma. It counts as ADME, cell-free.
The target of data set [8] is T4, Muscarinic acetylcholine receptor M1 (Homo sapiens) (UniProt P11229).
T4 sequence (whole entry): T1 sequence (P08482 whole entry) with V5A, S254T, S309P, K320R, G337A, V413I
Briefly: Positive allosteric modulation at human muscarinic acetylcholine receptor M1 assessed as effect on beta-arrestin recruitment relative to acetylcholine. (Recruitment of arrestin is a read-out of receptor activation apart from second messengers.)

In data set [9] the target is T4, Muscarinic acetylcholine receptor M1 (Homo sapiens). Put plainly: Positive allosteric modulation at human muscarinic acetylcholine receptor M1 expressed in CHO cells assessed as potentiation of acetylcholine-induced calcium mobilization relative to acetylcholine. It counts as functional, cell-based.
Data set [10] deals with T3, Muscarinic acetylcholine receptor M1. Put plainly: Positive allosteric modulation at human muscarinic acetylcholine receptor M1 assessed as effect on beta-arrestin recruitment.
The target is the same in data set [11]. Briefly: Positive allosteric modulation at human muscarinic acetylcholine receptor M1 assessed as effect on receptor internalization.
Data set [12] can be described thus: Fraction unbound in rat brain homogenate. It counts as ADME, tissue-based.

Numbering of substitutions follows the chain as printed. A value given as a limit tells only on which side of the number the result lay.

The term Kp denotes the ratio of the level in a tissue or fluid to that in plasma or blood. A word on the EC50: it is the concentration at which the effect is half-maximal. Broadly, the fraction unbound is free concentration divided by total concentration. Higher therefore signals weak binding. The molecule `Cn1cc2c(-c3cc(F)c(Cn4cnc5ccccc5c4=O)c(F)c3)cccc2n1` showed a Kp at 0.25 h in [1] of 0.79. Moreover, in data set [2], the Kp uu at 0.25 h is 0.32. Also, the Ratio EC50 with CHO was found to be 2. The EC50 in data set [3] is 4.7 µM; in data set [6], above 10 µM. In addition, the fraction unbound in [4] and in data set [7] was 0.01 throughout. In addition, the %max in data set [5] worked out at 45%.
For the molecule `Cn1cc2c(-c3cc(F)c(CN4CCc5ncccc5C4=O)c(F)c3)cccc2n1`, the Kp at 0.25 h in data set [1] amounted to 0.52. For the same molecule, the Kp uu at 0.25 h in data set [2] came out at 0.49. For the same molecule, the Ratio EC50 in the data set with CHO turned out to be 2. The values for the EC50 in data set [3] and in data set [6] were 4.3 µM and above 10 µM, respectively. Moreover, the fraction unbound in data set [4] and in [7] was 0.01 in each case. The %max in data set [5] stood at 52%.
Consider `Cn1cc2c(-c3cc(F)c(Cn4cnc5cnccc5c4=O)c(F)c3)cccc2n1`, for which the %max is 33% in data set [8], 65% in data set [9] and 73% in [5]. For the same molecule, the Kp at 0.25 h in data set [1] stood at 0.77. Besides, the Kp uu at 0.25 h in data set [2] was determined as 0.6. In the data set with CHO, the Ratio EC50 stood at 2. In addition, the EC50 in data set [3] is 4.7 µM; in [10] it was 0.98 µM; in data set [11] it was above 10 µM; in [6], 5.3 µM. The fraction unbound in data set [4] and in data set [7] was 0.01 in each case.
`Cn1cc2c(-c3cc(F)c(CN4C=CC5=NCCN5C4=O)c(F)c3)cccc2n1` registered a Kp at 0.25 h in data set [1] of 0.35. The Kp uu at 0.25 h in data set [2] turned out to be 0.3. Moreover, the Ratio EC50 in the data set with CHO came out at 2. Also, the EC50 in data set [3] is 1.7 µM; in [6], above 10 µM. For the same molecule, the fraction unbound in data set [4] worked out at 0.04; in data set [7], 0.08. For the same molecule, the %max in data set [5] was found to be 50%.
Regarding `Cn1cnc2ccc(-c3cc(F)c(Cn4cnc5cnccc5c4=O)c(F)c3)cc21`, in [1] (brain, 0.25 h, BLD = below limit of detection), the Kp result is “BLD”. In addition, the EC50 in [3] is 5.3 µM. Also, the fraction unbound in data set [4] was determined as 0.06; in data set [7], 0.04.
As to `Cn1cc2c(-c3cc(F)c(CN4CCn5nccc5C4=O)c(F)c3)cccc2n1`, the EC50 in data set [3] was above 10 µM.
Turning to `O=c1c2ccncc2ncn1Cc1c(F)cc(-c2ccc3cnccc3c2)cc1F`, the Kp at 0.25 h in data set [1] was 3.1. The Kpuu at 0.25 h in data set [2] stood at 2.7. The EC50 in data set [3] worked out at 6.1 µM. The unbound share (fraction unbound) in data set [4] and in data set [7] was 0.03 each time.
`Cn1cc2cc(-c3cc(F)c(CN4CCn5nccc5C4=O)c(F)c3)ccc2n1` gave a Kp at 0.25 h in data set [1] of 0.4. Moreover, the Kpuu at 0.25 h in [2] stood at 0.7. In data set [3], the EC50 is 1.7 µM. Besides, the fraction unbound in data set [4] was 0.05; in data set [12], 0.098; in data set [7] it was 0.06. Besides, in data set [5], the %max was 50%.
With `Cn1cc2cc(-c3cc(F)c(Cn4c(=O)cnc5ncccc54)c(F)c3)ccc2n1`, the Kp at 0.25 h in data set [1] was 1.64. This molecule had a Kpuu at 0.25 h in [2] of 1.1. In addition, in data set [3], the EC50 was determined as 2.8 µM. Moreover, the fraction unbound in data set [4] and in [7] was 0.04 in each case.
In [1], `Cn1cc2c(-c3cc(F)c(Cn4c(=O)cnc5ccccc54)c(F)c3)cccc2n1` showed a Kp at 0.25 h of 2.16. In data set [2], the Kp uu at 0.25 h turned out to be 0.77. In the data set with CHO, the Ratio EC50 came to 2. Also, the EC50 was 4.9 µM in [3] and above 10 µM in data set [6]. Further, the fraction unbound in [4] and in data set [7] was 0.01 throughout. Further, the %max in [5] is 67%.
Regarding `Cn1cc(-c2ccc(CN3Cc4ncccc4C3=O)c(F)c2)cn1`, the %max was 57% in [8], 79% in data set [9] and 75% in data set [5]. The molecule also yielded a Kp at 0.25 h in [1] of 0.3. Further, the Ratio EC50 in the data set on CHO amounted to 3. Moreover, the EC50 in data set [3] is 3.2 µM; in [10], 2.6 µM; in [11] it was above 10 µM; in data set [6] it was 1.9 µM.
